In PubChem BioAssay AID1963961 (Molecular Pharmacology Branch, DTP, NCI, 2024):

Tested on: K98450-129-R-PDC multicell spheroids, viability
Experiment: Anticancer human tumor K98450-129-R-PDC patient-derived colon adenocarcinoma cell line growth inhibition [PI3K]
Conditions: for IC50: curve of first compound; for viability, T/C: stronger effect = lower value
Summary of the method: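 Tumor cells were combined with HUVEC and MSCs into spheroids, then dosed with PI3K-inhibitor combinations over half-log ranges capped near clinical Cmax or 10 microM.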

[1] = second compound 0.00316 µM, first compound 0.0316 µM
[2] = second compound 0.00316 µM, first compound 0.1 µM
[3] = second compound 0.01 µM, first compound 0.0316 µM
[4] = second compound 0.01 µM, first compound 0.1 µM
[5] = second compound 0.0316 µM, first compound 0.0316 µM
[6] = second compound 0.0316 µM, first compound 0.1 µM
[7] = second compound 0.1 µM, first compound 0.0316 µM
[8] = second compound 0.1 µM, first compound 0.1 µM
[9] = second compound 0.316 µM, first compound 0.0316 µM
[10] = second compound 0.316 µM, first compound 0.1 µM
[11] = second compound 1 µM, first compound 0.0316 µM
[12] = second compound 1 µM, first compound 0.1 µM
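Also: spheroids exposed to agents for seven days before read-out.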

Q: Which results are given for `CC(C)n1nc(-c2ccc3oc(N)nc3c2)c2c(N)ncnc21` + CC(Nc1ccc2c(c1)OCCn1cc(N3C(=O)OCC3C(F)F)nc1-2)C(N)=O?
A: IC50 (second compound 0.00316 µM): > 0.1 µM; IC50 (second compound 0.01 µM): > 0.1 µM; IC50 (second compound 0.0316 µM): > 0.1 µM; IC50 (second compound 0.1 µM): > 0.1 µM; IC50 (second compound 0.316 µM): > 0.1 µM; IC50 (second compound 1 µM): > 0.1 µM; viability, T/C (second compound 0.00316 µM, first compound 0.000316 µM): 106%; viability, T/C (second compound 0.00316 µM, first compound 0.001 µM): 93.9%; viability, T/C (second compound 0.00316 µM, first compound 0.00316 µM): 97.1%; viability, T/C (second compound 0.00316 µM, first compound 0.01 µM): 94.7%; viability, T/C [1]: 90.3%; viability, T/C [2]: 78.8%; viability, T/C (second compound 0.01 µM, first compound 0.000316 µM): 115%; viability, T/C (second compound 0.01 µM, first compound 0.001 µM): 100%; viability, T/C (second compound 0.01 µM, first compound 0.00316 µM): 103%; viability, T/C (second compound 0.01 µM, first compound 0.01 µM): 91.1%; viability, T/C [3]: 96.1%; viability, T/C [4]: 77.2%; viability, T/C (second compound 0.0316 µM, first compound 0.000316 µM): 99%; viability, T/C (second compound 0.0316 µM, first compound 0.001 µM): 98.9%; viability, T/C (second compound 0.0316 µM, first compound 0.00316 µM): 99.4%; viability, T/C (second compound 0.0316 µM, first compound 0.01 µM): 94.5%; viability, T/C [5]: 96.5%; viability, T/C [6]: 74%; viability, T/C (second compound 0.1 µM, first compound 0.000316 µM): 100%; viability, T/C (second compound 0.1 µM, first compound 0.001 µM): 102%; viability, T/C (second compound 0.1 µM, first compound 0.00316 µM): 95.4%; viability, T/C (second compound 0.1 µM, first compound 0.01 µM): 91.3%; viability, T/C [7]: 93.1%; viability, T/C [8]: 71.5%; viability, T/C (second compound 0.316 µM, first compound 0.000316 µM): 93.1%; viability, T/C (second compound 0.316 µM, first compound 0.001 µM): 93.2%; viability, T/C (second compound 0.316 µM, first compound 0.00316 µM): 99.7%; viability, T/C (second compound 0.316 µM, first compound 0.01 µM): 88.2%; viability, T/C [9]: 79.1%; viability, T/C [10]: 77.7%; viability, T/C (second compound 1 µM, first compound 0.000316 µM): 87.2%; viability, T/C (second compound 1 µM, first compound 0.001 µM): 89.7%; viability, T/C (second compound 1 µM, first compound 0.00316 µM): 81.3%; viability, T/C (second compound 1 µM, first compound 0.01 µM): 82.2%; viability, T/C [11]: 80.9%; viability, T/C [12]: 67.1%

Q: `CCCS(=O)(=O)Nc1ccc(F)c(C(=O)c2c[nH]c3ncc(-c4ccc(Cl)cc4)cc23)c1F` + CC(Nc1ccc2c(c1)OCCn1cc(N3C(=O)OCC3C(F)F)nc1-2)C(N)=O was tested. Which IC50 (second compound 0.00316 µM) did it give?
A: The IC50 was 6.63 µM.

Q: What about the IC50 (second compound 0.01 µM) of the same compound?
A: Its IC50 is 6.48 µM.

Q: And the IC50 (second compound 0.0316 µM)?
A: The IC50 was 6.29 µM.

Q: And the IC50 (second compound 0.1 µM)?
A: The IC50 was 6.2 µM.

Q: What about the IC50 (second compound 0.316 µM) of the same compound?
A: The IC50 was 5.98 µM.

Q: What about the IC50 (second compound 1 µM) of the same compound?
A: Its IC50 is 5.78 µM.

Q: And the viability, T/C [1]?
A: Its viability, T/C is 113%.

Q: What about the viability, T/C [2] of the same compound?
A: The viability, T/C was 104%.

Q: And the viability, T/C (second compound 0.00316 µM, first compound 0.316 µM)?
A: The viability, T/C was 112%.

Q: And the viability, T/C (second compound 0.00316 µM, first compound 1 µM)?
A: The viability, T/C was 111%.

Q: And the viability, T/C (second compound 0.00316 µM, first compound 3.16 µM)?
A: Its viability, T/C is 135%.

Q: And the viability, T/C (second compound 0.00316 µM, first compound 10 µM)?
A: Its viability, T/C is 14.1%.

Q: What about the viability, T/C [3] of the same compound?
A: The viability, T/C was 117%.

Q: What about the viability, T/C [4] of the same compound?
A: Its viability, T/C is 110%.

Q: What about the viability, T/C (second compound 0.01 µM, first compound 0.316 µM) of the same compound?
A: Its viability, T/C is 114%.

Q: And the viability, T/C (second compound 0.01 µM, first compound 1 µM)?
A: The viability, T/C was 105%.

Q: And the viability, T/C (second compound 0.01 µM, first compound 3.16 µM)?
A: Its viability, T/C is 148%.

Q: And the viability, T/C (second compound 0.01 µM, first compound 10 µM)?
A: Its viability, T/C is 8.38%.

Q: And the viability, T/C [5]?
A: Its viability, T/C is 97%.

Q: And the viability, T/C [6]?
A: The viability, T/C was 105%.

Q: And the viability, T/C (second compound 0.0316 µM, first compound 0.316 µM)?
A: The viability, T/C was 100%.

Q: And the viability, T/C (second compound 0.0316 µM, first compound 1 µM)?
A: Its viability, T/C is 105%.

Q: And the viability, T/C (second compound 0.0316 µM, first compound 3.16 µM)?
A: The viability, T/C was 136%.

Q: And the viability, T/C (second compound 0.0316 µM, first compound 10 µM)?
A: Its viability, T/C is 10.4%.

Q: What about the viability, T/C [7] of the same compound?
A: The viability, T/C was 96.5%.

Q: What about the viability, T/C [8] of the same compound?
A: The viability, T/C was 102%.

Q: What about the viability, T/C (second compound 0.1 µM, first compound 0.316 µM) of the same compound?
A: Its viability, T/C is 97.9%.

Q: What about the viability, T/C (second compound 0.1 µM, first compound 1 µM) of the same compound?
A: Its viability, T/C is 101%.

Q: And the viability, T/C (second compound 0.1 µM, first compound 3.16 µM)?
A: Its viability, T/C is 130%.

Q: What about the viability, T/C (second compound 0.1 µM, first compound 10 µM) of the same compound?
A: The viability, T/C was 10.7%.

Q: What about the viability, T/C [9] of the same compound?
A: The viability, T/C was 90.6%.

Q: What about the viability, T/C [10] of the same compound?
A: Its viability, T/C is 93.7%.

Q: And the viability, T/C (second compound 0.316 µM, first compound 0.316 µM)?
A: Its viability, T/C is 98.5%.

Q: What about the viability, T/C (second compound 0.316 µM, first compound 1 µM) of the same compound?
A: Its viability, T/C is 98.4%.

Q: And the viability, T/C (second compound 0.316 µM, first compound 3.16 µM)?
A: Its viability, T/C is 113%.

Q: And the viability, T/C (second compound 0.316 µM, first compound 10 µM)?
A: The viability, T/C was 10.5%.

Q: And the viability, T/C [11]?
A: The viability, T/C was 88.3%.

Q: And the viability, T/C [12]?
A: Its viability, T/C is 88.8%.

Q: What about the viability, T/C (second compound 1 µM, first compound 0.316 µM) of the same compound?
A: The viability, T/C was 91.4%.

Q: What about the viability, T/C (second compound 1 µM, first compound 1 µM) of the same compound?
A: Its viability, T/C is 97%.

Q: What about the viability, T/C (second compound 1 µM, first compound 3.16 µM) of the same compound?
A: Its viability, T/C is 91.2%.

Q: And the viability, T/C (second compound 1 µM, first compound 10 µM)?
A: Its viability, T/C is 12.5%.
